Source: patent publication US10736974B2, “Scaffolds and multifunctional intermediates for imaging PSMA and cancer therapy” (THE JOHNS HOPKINS UNIVERSITY, priority 2014, dated 2020)
“Also recorded” adds a separate entry of the source.

Key:
[1] = test system: PSMA+ PC-3 PIP and PSMA- PC-3 flu tumors; experiment: PET-CT imaging of NOD/SCID mice bearing PSMA+ PC-3 PIP and PSMA- PC-3 flu tumors; format: in vivo
Procedure: FIG. 8A, FIG. 8B, FIG. 8C, and FIG. 8D show positron emission tomography-computed tomography (PET-CT) images in male NOD-SCID mice injected with the radiolabeled [^18F]XY-20 compound at (FIG. 8A) 5-15 minutes, (FIG. 8B) 15-25 minutes, (FIG. 8C) 25-35 minutes and (FIG. 8D) 50-60 minutes after injection; the mice on the right in each panel were pretreated with ZJ43 and the mice on the left in each panel were not pretreated with ZJ43. The green arrows point to the PSMA-negative PC3-flu tumor and the red arrows point to the PSMA-expressing (PC3-PIP) tumor (target); 200 microCi of radiotracer was injected;
Dynamic and whole-body PET and CT images were acquired on an eXplore VISTA small-animal PET (GE Healthcare) and an X-SPECT small SPECT/CT system (Gamma Medica Ideas), respectively. For imaging studies, anesthesia was induced with 3% and maintained under 1.5% isoflurane (v/v) in oxygen. PET or PET-CT imaging studies were performed on NOD/SCID mice bearing PSMA+PC-3 PIP and PSMA-PC-3 flu tumors. Following intravenous injection of [^18F]12 ([^18F]XY-20) PET images were acquired at 10 min, 30 min, 1 h, 2 h and 4 h p.i. as a pseudodynamic scan, i.e., a sequence of successive whole-body images were acquired in two bed positions. The dwell time at each bed position was 10 min for a total scan time of 20 minutes. An energy window of 250-700 keV was used. […]

[2] = test system: PSMA+ PC-3 PIP and PSMA- PC-3 flu tumors; experiment: Ex vivo biodistribution in mice bearing PSMA+ PC-3 PIP and PSMA- PC-3 flu xenografts; conditions: for Biodistribution, PC-3 Pip tumor: PSMA+ PC-3 PIP tumor; for Biodistribution, PC-3 flu tumor: PSMA- PC-3 flu tumor; for Biodistribution, Lrg int.: large intestine; for Biodistribution, Sm. int.: small intestine
[3] = test system: PC-3 PIP (PSMA+) cells; experiment: In vitro stability studies (TLC of radiometabolites) in PC-3 PIP and PC-3 flu cells; conditions: 30 minutes incubation, PC-3 PIP vs PC-3 flu cells

O=C(O)CC[C@H](NC(=O)O[C@@H](CCCCNC(=O)c1ccc([18F])cc1)C(=O)O)C(=O)O [[^18F]12]
tumor uptake on co-injection with an excess of competing inhibitor ZJ-43 [1]: complete blockade of tumor uptake
tumor and kidney uptake and clearance (pharmacokinetics in words) ([2]; PC-3 PIP tumor mice): modest PSMA+PC-3 PIP tumor uptake but rapidly cleared from both PC-3 PIP tumor and normal tissues including kidneys
Biodistribution, PC-3 Pip tumor ([2]; 30 min, N = 7): 6.33±1.55 percent injected dose/gram
Biodistribution, PC-3 Pip tumor ([2]; 60 min, N = 4): 3.52 ± 1.48 percent injected dose/gram
Biodistribution, PC-3 Pip tumor ([2]; 90 min, N = 4): 0.94 ± 0.24 percent injected dose/gram
Biodistribution, PC-3 Pip tumor ([2]; 180 min, N = 4): 0.22 ± 0.07 percent injected dose/gram
Biodistribution, PC-3 flu tumor ([2]; 30 min, N = 7): 1.89 ± 0.78 percent injected dose/gram
Biodistribution, PC-3 flu tumor ([2]; 60 min, N = 4): 0.72 ± 0.12 percent injected dose/gram
Biodistribution, PC-3 flu tumor ([2]; 90 min, N = 4): 0.37 ± 0.08 percent injected dose/gram
Biodistribution, PC-3 flu tumor ([2]; 180 min, N = 4): 0.12 0.03 percent injected dose/gram
clearance of radioactivity from organs ([2]; after 30 min): radioactivity rapidly cleared from all organs including PC-3 PIP tumor
Biodistribution, bladder ([2]; 30 min, N = 7): 22.4 ± 22.5 percent injected dose/gram
Biodistribution, bladder ([2]; 60 min, N = 4): 5.50 ± 3.45 percent injected dose/gram
Biodistribution, bladder ([2]; 90 min, N = 4): 2.11 ± 1.21 percent injected dose/gram
Biodistribution, bladder ([2]; 180 min, N = 4): 2.74 ± 0.48 percent injected dose/gram
Biodistribution, blood ([2]; 30 min, N = 7): 2.51 ± 1.75 percent injected dose/gram
Biodistribution, blood ([2]; 60 min, N = 4): 1.07 ± 0.26 percent injected dose/gram
Biodistribution, blood ([2]; 90 min, N = 4): 0.20 ± 0.14 percent injected dose/gram
Biodistribution, blood ([2]; 180 min, N = 4): 0.08 ± 0.06 percent injected dose/gram
Biodistribution, bone ([2]; 30 min, N = 7): 2.05 ± 2.39 percent injected dose/gram
Biodistribution, bone ([2]; 60 min, N = 4): 0.72 ± 0.31 percent injected dose/gram
Biodistribution, bone ([2]; 90 min, N = 4): 0.79 ± 0.16 percent injected dose/gram
Biodistribution, bone ([2]; 180 min, N = 4): 0.63 ± 0.14 percent injected dose/gram
Biodistribution, fat ([2]; 30 min, N = 7): 1.23 ± 1.88 percent injected dose/gram
Biodistribution, fat ([2]; 60 min, N = 4): 0.15 ± 0.05 percent injected dose/gram
Biodistribution, fat ([2]; 90 min, N = 4): 0.11 ± 0.06 percent injected dose/gram
Biodistribution, fat ([2]; 180 min, N = 4): 0.04 ± 0.02 percent injected dose/gram
Biodistribution, heart ([2]; 30 min, N = 7): 1.12 ± 0.74 percent injected dose/gram
Biodistribution, heart ([2]; 60 min, N = 4): 0.25 ± 0.08 percent injected dose/gram
Biodistribution, heart ([2]; 90 min, N = 4): 0.11 ± 0.02 percent injected dose/gram
Biodistribution, heart ([2]; 180 min, N = 4): 0.07 ± 0.04 percent injected dose/gram
Biodistribution, kidney ([2]; 30 min, N = 7): 14.2 ± 8.47 percent injected dose/gram
Biodistribution, kidney ([2]; 60 min, N = 4): 6.97 ± 7.02 percent injected dose/gram
Biodistribution, kidney ([2]; 90 min, N = 4): 1.51 ± 0.22 percent injected dose/gram
Biodistribution, kidney ([2]; 180 min, N = 4): 0.50 ± 0.18 percent injected dose/gram
Biodistribution, Lrg int. ([2]; 30 min, N = 7): 3.82 ± 5.87 percent injected dose/gram
Biodistribution, Lrg int. ([2]; 60 min, N = 4): 0.62 ± 0.27 percent injected dose/gram
Biodistribution, Lrg int. ([2]; 90 min, N = 4): 0.18 ± 0.03 percent injected dose/gram
Biodistribution, Lrg int. ([2]; 180 min, N = 4): 0.16 ± 0.05 percent injected dose/gram
Biodistribution, liver ([2]; 30 min, N = 7): 11.0 ± 1.77 percent injected dose/gram
Biodistribution, liver ([2]; 60 min, N = 4): 12.5 ± 3.01 percent injected dose/gram
Biodistribution, liver ([2]; 90 min, N = 4): 11.0 ± 0.87 percent injected dose/gram
Biodistribution, liver ([2]; 180 min, N = 4): 4.62 ± 3.80 percent injected dose/gram
Biodistribution, lung ([2]; 30 min, N = 7): 2.07 ± 1.51 percent injected dose/gram
Biodistribution, lung ([2]; 60 min, N = 4): 0.85 ± 0.55 percent injected dose/gram
Biodistribution, lung ([2]; 90 min, N = 4): 0.33 ± 0.05 percent injected dose/gram
Biodistribution, lung ([2]; 180 min, N = 4): 0.14 ± 0.04 percent injected dose/gram
Biodistribution, muscle ([2]; 30 min, N = 7): 0.86 ± 0.81 percent injected dose/gram
Biodistribution, muscle ([2]; 60 min, N = 4): 0.27 ± 0.12 percent injected dose/gram
Biodistribution, muscle ([2]; 90 min, N = 4): 0.06 ± 0.01 percent injected dose/gram
Biodistribution, muscle ([2]; 180 min, N = 4): 0.03 ± 0.01 percent injected dose/gram
Biodistribution, Sm. int. ([2]; 30 min, N = 7): 1.89 ± 1.58 percent injected dose/gram
Biodistribution, Sm. int. ([2]; 60 min, N = 4): 0.54 ± 0.19 percent injected dose/gram
Biodistribution, Sm. int. ([2]; 90 min, N = 4): 0.27 ± 0.11 percent injected dose/gram
Biodistribution, Sm. int. ([2]; 180 min, N = 4): 0.08 ± 0.04 percent injected dose/gram
Biodistribution, spleen ([2]; 30 min, N = 7): 3.76 ± 6.48 percent injected dose/gram
Biodistribution, spleen ([2]; 60 min, N = 4): 0.45 ± 0.31 percent injected dose/gram
Biodistribution, spleen ([2]; 90 min, N = 4): 0.27 ± 0.04 percent injected dose/gram
Biodistribution, spleen ([2]; 180 min, N = 4): 0.13 ± 0.08 percent injected dose/gram

O=C(O)CC[C@H](NC(=O)O[C@@H](CCCCNC(=O)c1ccc([125I])cc1)C(=O)O)C(=O)O [[^125I]31, (S)-2-(((((S)-1-carboxy-5-(4-[^125I]iodobenzamido)pentyl)oxy)carbonyl)amino) pentanedioic acid]
radiometabolites / metabolism in cells [3]: Polar radiometabolite(s) in extracellular and intracellular fluid were only seen; also recorded: observed only in PSMA+PC-3 PIP cells
